Assay results reported in article PMC12336439 (Archiv Der Pharmazie, 2025).

What was measured:
USP7 = molecular target: T1, USP7 (Homo sapiens, UniProt Q93009); assay: Differential scanning fluorimetry (DSF), melting temperature shift of USP7; assay type: binding; details: 8 µM protein, 250 µM compound (1:31.25)
T1 construct: USP7 catalytic domain (USP7CD) (208‐560); made in house
From the text: The influence of the synthesized compounds on the melting temperature (T m) of USP7 and its mutant USP7asoc (active site only cysteine) was investigated by DSF. USP7asoc only retains the catalytic Cys223 while all the other six cysteines are mutated to serine. DSF was selected for initial assessment since it is an efficient and rapid primary screening method readily available to our lab.
An important consideration when assessing covalent inhibitors is the time dependence of covalent target occupancy and thus potency, which is determined by the reaction kinetics of the covalent binding event. To allow for drawing conclusions on compounds with slower reaction kinetics, incubation times of 30 min, 4 h, and 24 h at 20°C were chosen for the DSF screen with USP7 (Table 1 and Figures 2 and 3). The threshold at which compounds were considered (de‐)stabilizers was defined at 0.5°C. In parallel, the intrinsic reactivity of a set of representative compounds was evaluated in a glutathione reactivity assay. […] Data obtained from the GSH reactivity studies are shown in Supporting Information S2: Table S2.1 and Figures S2.1–2.3.
The melting temperatures of USP7 and USP7asoc in the presence or absence of fragments were determined by DSF on a Qiagen Rotor‐Q Model‐5‐Plex HRM real‐time PCR instrument (Qiagen, Hilden, Germany). SYPRO Orange (Life Technologies Corporation, Eugene, OR, USA) was used as a fluorescent dye at a final concentration of 5x. The protein concentration was 8 µM, and the final compound concentration was 250 µM, corresponding to a protein‐to‐compound ratio of 1:31.25. All compounds were dissolved in dimethyl sulfoxide (DMSO) and the proteins in Tris buffer (25 mM Tris pH 8.0, 150 mM NaCl, 5 mM TCEP, 5% (v/v) DMSO). All measurements were performed after 30 min, 4 h, and 24 h of incubation and at least in triplicate. DSF experiments were carried out with a constant heating rate of 270°C/h. The temperature was ramped from 28°C to 60°C–70°C with excitation and emission filters set at 470 nm and 610 nm, respectively. The melting temperatures (T m) of USP7 and USP7asoc were determined from the maxima of the first derivatives of the melting curves in OriginPro2020 (OriginLab, Northampton, MA, USA). The ∆T m was calculated by subtraction of the T m of the protein sample with pure DMSO from the T m of the protein sample mixed with compound. Error propagation was used to average multiple runs for a compound. A compound was considered to be a hit if the shift in the ∆T m was at least 0.50°C [55].

USP7asoc = molecular target: T2, USP7asoc (Homo sapiens, UniProt Q93009, C300S/C315S/C334S/C478S/C488S/C510S); assay: Intact protein MS (UHPLC-ESI-MS), covalent modification of USP7asoc; assay type: binding; details: 24 h incubation at 20°C, protein-to-compound ratio 1:31.25
T2 construct: (208‐560, C300/315/334/448/478/510S); made in house
Experimental: The DSF results described above were validated by UHPLC‐ESI‐MS to verify possible covalent binding through a corresponding mass shift. Intact protein MS is an important screening method in irreversible‐covalent hit identification and is especially suitable for covalent fragment‐based drug discovery (FBDD). It allows for the identification of covalent binders by detecting covalent protein‐compound adducts, thus making use of the stability of the covalent bond. USP7 was prepared in Tris buffer (25 mM Tris pH 8.0, 150 mM NaCl, 5 mM TCEP) with a protein‐to‐compound ratio of 1:31.25 and 5% (v/v) DMSO. The protein‐compound mixtures were all incubated at 20°C for 24 h on a rotating shaker. The analysis of intact protein mass was carried out using UHPLC‐ESI‐MS measurements, with data acquisition and data analysis as previously described.

T1 sequence (Q93009 with tags, fused parts or gaps): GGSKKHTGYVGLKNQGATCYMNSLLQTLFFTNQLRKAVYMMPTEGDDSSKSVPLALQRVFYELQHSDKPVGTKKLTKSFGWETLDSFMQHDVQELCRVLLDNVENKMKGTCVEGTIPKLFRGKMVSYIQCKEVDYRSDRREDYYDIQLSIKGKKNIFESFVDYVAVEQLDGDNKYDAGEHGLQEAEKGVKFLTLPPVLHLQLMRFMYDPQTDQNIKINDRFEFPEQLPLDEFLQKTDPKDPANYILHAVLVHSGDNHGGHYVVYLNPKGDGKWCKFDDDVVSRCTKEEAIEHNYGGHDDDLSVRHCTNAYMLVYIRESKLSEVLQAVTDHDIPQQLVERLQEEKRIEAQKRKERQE
T2 sequence (Q93009 with tags, fused parts or gaps C300S/C315S/C334S/C478S/C488S/C510S): as the sequence (Q93009 with tags, fused parts or gaps) above, with C96S, C111S, C130S, C274S, C284S, C306S counted along it

Q: For `Cn1ccc(-c2cccc3cnc(Nc4nc(F)ccc4[N+](=O)[O-])cc23)c1` [7b, N‐(6‐Fluoro‐3‐nitropyridin‐2‐yl)‐5‐(1‐methyl‐1H‐pyrrol‐3‐yl)isoquinolin‐3‐amine], which “∆T m ± SD USP7” value (USP7; 30 min incubation at 20°C) is on record?
A: The value was “–0.10 ± 0.09 °C”.

Q: What about the “∆T m ± SD USP7” value (USP7; 4 h incubation at 20°C) of the same compound?
A: Its value is 0.00 ± 0 °C.

Q: And the “∆T m ± SD USP7” value (USP7; 24 h incubation at 20°C)?
A: The value was 0.00 ± 0 °C.

Q: What about the “protein species in deconvoluted mass spectrum of USP7asoc” value (shortened to “protein species”) (USP7asoc) of the same compound?
A: The value was “unmodified protein species as a main peak for both USP7 and USP7asoc”.

Q: `CCn1cc(-c2cccc3cnc(Nc4nc(F)ccc4[N+](=O)[O-])cc23)cn1` [7c, 5‐(1‐Ethyl‐1H‐pyrazol‐4‐yl)‐N‐(6‐fluoro‐3‐nitropyridin‐2‐yl)isoquinolin‐3‐amine] was tested. Which “∆T m ± SD USP7” value (USP7; 30 min incubation at 20°C) did it give?
A: The value was “–0.45 ± 0.12 °C”.

Q: And the “∆T m ± SD USP7” value (USP7; 4 h incubation at 20°C)?
A: Its value is “–0.45 ± 0 °C”.

Q: What about the “protein species” value (USP7asoc) of the same compound?
A: Its value is “mainly showed the attachment of a single molecule to USP7 and USP7asoc”.

Q: For `CCCn1cc(-c2cccc3cnc(Nc4nc(F)ccc4[N+](=O)[O-])cc23)cn1` [7d, N‐(6‐Fluoro‐3‐nitropyridin‐2‐yl)‐5‐(1‐propyl‐1H‐pyrazol‐4‐yl)isoquinolin‐3‐amine], which “∆T m ± SD USP7” value (USP7; 30 min incubation at 20°C) is on record?
A: The value was “–0.30 ± 0.06 °C”.

Q: And the “∆T m ± SD USP7” value (USP7; 4 h incubation at 20°C)?
A: Its value is “–0.18 ± 0.03 °C”.

Q: And the “protein species” value (USP7asoc)?
A: Its value is “single modified protein as the main signal”.

Q: What does the source list for `O=[N+]([O-])c1ccc(F)nc1Nc1cc2c(-c3cnn(C4CC4)c3)cccc2cn1` [7e, 5‐(1‐Cyclopropyl‐1H‐pyrazol‐4‐yl)‐N‐(6‐fluoro‐3‐nitropyridin‐2‐yl)isoquinolin‐3‐amine]?
A: ∆T m ± SD USP7 (USP7; 30 min incubation at 20°C): –0.23 ± 0.06 °C; ∆T m ± SD USP7 (USP7; 4 h incubation at 20°C): 0.02 ± 0.03 °C; protein species in deconvoluted mass spectrum of USP7asoc (USP7asoc): mono‐arylated USP7 and USP7asoc species as main peaks

Q: What does the source list for `O=[N+]([O-])c1ccc(F)nc1Nc1cc2c(-c3ccc(-c4ccncc4)cc3)cccc2cn1` [7i, N‐(6‐Fluoro‐3‐nitropyridin‐2‐yl)‐5‐[4‐(pyridin‐4‐yl)phenyl]isoquinolin‐3‐amine]?
A: ∆T m ± SD USP7 (USP7; 30 min incubation at 20°C): –0.13 ± 0.09 °C; ∆T m ± SD USP7 (USP7; 4 h incubation at 20°C): –0.40 ± 0.08 °C; ∆T m ± SD USP7 (USP7; 24 h incubation at 20°C): –0.45 ± 0.09 °C; protein species in deconvoluted mass spectrum of USP7asoc (USP7asoc): unmodified USP7 and USP7asoc as the main peak
